We go through one molecule from patent US20090227606A1, “Methods for Preventing or Treating Acute and Chronic Pain” (priority 2006, published 2009).

In the experiment the test system is GLAST mRNA. In words: Real Time RT-PCR of ipsilateral lumbar spinal cord, GLAST mRNA. It is filed as in vivo, rat. Here is the method:
Tissue was collected from 4-5 rats/group on postoperative days 4 or 12. In order to obtain both mRNA and protein from the same tissue sample, the L5 region of the spinal cord (ipsilateral to the injury), was isolated and placed in PBS supplemented with protease inhibitor cocktail (1:1000, Sigma Chemical Co., St. Louis, Mo.) and RNase inhibitor (0.75 U/μL Ambion, Austin, Tex.). Samples were sonicated in five one-second bursts at half-maximal power, centrifuged at 6500 rpm for 15 minutes at 4° C. Protein-containing supernatants were collected and stored at −80° C. until further processing by Western blot analysis. […]
Real time RT-PCR reactions were carried out in a total reaction volume of 25 μL containing a final concentration of 1.5 U Platinum Taq DNA polymerase (Invitrogen Corporation, Carlsbad, Calif.); 20 mM Tris HCl (pH 8.4); 50 mM KCl; 3 mM MgCl2; 200 μM dGTP, dCTP, and dATP; 400 μM dUTP and 1 U of UDG (uracyl DNA glycosylase); 900 nM of forward and reverse primers; 300 nM Taqman probe; and 5 μL of a 10-fold dilution of cDNA (50 ng) from the RT step. The iCycler™ Multicolor Real-Time PCR detection system (Bio-Rad, Hercules, Calif.) was used to quantify PCR product. […] The relative fold change from control was then expressed by calculation of 2^−ΔΔC^T for each sample and the results are expressed as the group mean fold change±SEM.
On the technique in general: In qPCR the cycle at which signal appears reflects the starting amount.

As for `CCCn1cnc2c1c(=O)n(CCCCC(C)=O)c(=O)n2C` [propentofylline], the “GLAST mRNA in lumbar spinal cord” value (day 4, compared to L5 spinal nerve transection alone) is given as “slight decrease in GLAST mRNA”. Moreover, the “GLAST mRNA levels (FIG. 9B legend)” value (days 4 and 12 post-transection) was “unaffected”.
